Laboratory results reported in patent US6737383B1, “Herbicidal oxadiazolidines” (priority 1999, dated 2004).

Assays:
rape = assay: Test B pre/postemergence rape; type: in vivo, Brassica napus
Summary of the method: (§1)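 Herbicidal effect was estimated by eye on a ten-point control scale after plants spent twelve to sixteen days in a greenhouse following soil or foliar treatment. Foliar sprays targeted plants at one to four leaves; all doses were formulated in a non-phytotoxic solvent with surfactant.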

bedstraw = assay: Test B pre/postemergence bedstraw; type: in vivo, Galium aparine; settings: Preemergence
Summary of the method: as §1

wheat = assay: Test B pre/postemergence wheat; type: in vivo, Triticum aestivum
Summary of the method: as §1

morningglory = assay: Test B pre/postemergence morningglory; type: in vivo, Ipomoea hederacea
Summary of the method: as §1

giant foxtail = assay: Test B pre/postemergence giant foxtail; type: in vivo, Setaria faberii
Summary of the method: as §1

blackgrass = assay: Test B pre/postemergence blackgrass; type: in vivo, Alopecurus myosuroides
Summary of the method: as §1

soybean = assay: Test B pre/postemergence soybean; type: in vivo, Glycine max
Summary of the method: as §1

sugar beet = assay: Test B pre/postemergence sugar beet; type: in vivo, Beta vulgaris
Summary of the method: as §1

wild oat = assay: Test B pre/postemergence wild oat; type: in vivo, Avena fatua
Summary of the method: as §1

corn = assay: Test B pre/postemergence corn; type: in vivo, Zea mays
Summary of the method: as §1

crabgrass = assay: Test B pre/postemergence crabgrass; type: in vivo, Digitaria sanguinalis
Summary of the method: as §1

purple nutsedge = assay: Test B pre/postemergence purple nutsedge; type: in vivo, Cyperus rotundus
Summary of the method: as §1

pigweed = assay: Test B pre/postemergence pigweed; type: in vivo, Amaranthus retroflexus
Summary of the method: as §1

velvetleaf = assay: Test B pre/postemergence velvetleaf; type: in vivo, Abutilon theophrasti
Summary of the method: as §1

cocklebur = assay: Test B pre/postemergence cocklebur; type: in vivo, Xanthium strumarium
Summary of the method: as §1

surinam grass = assay: Test B pre/postemergence surinam grass; type: in vivo, Brachiaria decumbens
Summary of the method: as §1

[1] = Postemergence, Rate 62 g/ha, scale of 0 to 10, 0 is no effect, 10 is complete control
[2] = Postemergence, Rate 125 g/ha, scale 0 to 10, 0 is no effect, 10 is complete control
[3] = Postemergence, Rate 500 g/ha, scale 0 to 10, 0 is no effect, 10 is complete control
[4] = Preemergence, Rate 62 g/ha, scale 0 to 10 (0 no effect, 10 complete control)
[5] = Preemergence, Rate 125 g/ha, scale 0 to 10, 0 is no effect, 10 is complete control
[6] = Preemergence, Rate 500 g/ha, scale of 0 to 10 where 0 is no effect and 10 is complete control
[7] = Rate 250 g/ha, Postemergence, scale of 0 to 10 where 0 is no effect and 10 is complete control

For `COCn1c(=O)on(C(=O)N(c2ccc(Cl)cc2)C(C)C)c1=O` [Compound 533], which “Rape plant response rating” value (rape; [1]) is on record?
Its value is 0.

What about the “Rape plant response rating” value (rape; [2]) of the same molecule?
Its value is 0.

What about the “Plant response rating, Rape” value (rape; [3]) of the same molecule?
Its value is 4.

What about the “Rape plant response rating” value (rape; [4]) of the same molecule?
The value was 0.

And the “Rape plant response rating” value (rape; [5])?
Its value is 0.

What about the “Rape plant response rating (0 to 10 scale)” value (rape; Preemergence, Rate 250 g/ha) of the same molecule?
Its value is 7.

What about the “Rape plant response rating” value (rape; [6]) of the same molecule?
The value was 7.

And the “Bedstraw plant response rating” value (bedstraw; Rate 62 g/ha, scale 0 to 10 (0 no effect, 10 complete control))?
The value was 0.

And the “Bedstraw plant response rating” value (bedstraw; Rate 125 g/ha, scale 0 to 10, 0 is no effect, 10 is complete control)?
Its value is 0.

What about the “Bedstraw plant response rating (0 to 10 scale)” value (bedstraw; Rate 250 g/ha) of the same molecule?
The value was 0.

What about the “Bedstraw plant response rating” value (bedstraw; Rate 500 g/ha, scale of 0 to 10 where 0 is no effect and 10 is complete control) of the same molecule?
The value was 0.

And the “Wheat plant response rating” value (wheat; [1])?
Its value is 0.

And the “Wheat plant response rating” value (wheat; [2])?
Its value is 0.

And the “Plant response rating, Wheat” value (wheat; [3])?
Its value is 2.

What about the “Wheat plant response rating” value (wheat; [4]) of the same molecule?
Its value is 0.

And the “Wheat plant response rating” value (wheat; [5])?
Its value is 0.

And the “Wheat plant response rating (0 to 10 scale)” value (wheat; Preemergence, Rate 250 g/ha)?
The value was 0.

And the “Wheat plant response rating” value (wheat; [6])?
The value was 0.

What about the “Morningglory plant response rating” value (morningglory; [1]) of the same molecule?
Its value is 4.

And the “Morningglory plant response rating” value (morningglory; [2])?
The value was 4.

And the “Plant response rating, Morningglory” value (morningglory; [3])?
Its value is 7.

What about the “Morningglory plant response rating” value (morningglory; [4]) of the same molecule?
The value was 0.

And the “Morningglory plant response rating” value (morningglory; [5])?
Its value is 0.

What about the “Morningglory plant response rating (0 to 10 scale)” value (morningglory; Preemergence, Rate 250 g/ha) of the same molecule?
The value was 0.

And the “Morningglory plant response rating” value (morningglory; [6])?
The value was 0.

And the “Plant response rating, Morningglory” value (morningglory; [7])?
The value was 7.

And the “Giant foxtail plant response rating” value (giant foxtail; [1])?
The value was 8.

What about the “Giant foxtail plant response rating” value (giant foxtail; [2]) of the same molecule?
Its value is 8.

And the “Plant response rating, Giant foxtail” value (giant foxtail; [3])?
Its value is 9.

What about the “Giant foxtail plant response rating” value (giant foxtail; [4]) of the same molecule?
Its value is 9.

What about the “Giant foxtail plant response rating” value (giant foxtail; [5]) of the same molecule?
The value was 10.

What about the “Giant foxtail plant response rating (0 to 10 scale)” value (giant foxtail; Preemergence, Rate 250 g/ha) of the same molecule?
The value was 10.

And the “Giant foxtail plant response rating” value (giant foxtail; [6])?
Its value is 10.

What about the “Plant response rating, Giant foxtail” value (giant foxtail; [7]) of the same molecule?
The value was 9.

And the “Blackgrass plant response rating” value (blackgrass; [2])?
The value was 2.

What about the “Plant response rating, Blackgrass” value (blackgrass; [3]) of the same molecule?
The value was 7.

What about the “Blackgrass plant response rating” value (blackgrass; [4]) of the same molecule?
Its value is 4.

What about the “Blackgrass plant response rating” value (blackgrass; [5]) of the same molecule?
Its value is 8.

What about the “Blackgrass plant response rating (0 to 10 scale)” value (blackgrass; Preemergence, Rate 250 g/ha) of the same molecule?
Its value is 9.

What about the “Blackgrass plant response rating” value (blackgrass; [6]) of the same molecule?
Its value is 9.

What about the “Soybean plant response rating” value (soybean; [1]) of the same molecule?
Its value is 4.

And the “Soybean plant response rating” value (soybean; [2])?
The value was 4.

And the “Plant response rating, Soybean” value (soybean; [3])?
The value was 4.

And the “Soybean plant response rating” value (soybean; [4])?
The value was 0.

And the “Soybean plant response rating” value (soybean; [5])?
The value was 0.

And the “Soybean plant response rating (0 to 10 scale)” value (soybean; Preemergence, Rate 250 g/ha)?
The value was 0.

What about the “Soybean plant response rating” value (soybean; [6]) of the same molecule?
The value was 0.

What about the “Plant response rating, Soybean” value (soybean; [7]) of the same molecule?
Its value is 4.

And the “Sugarbeets plant response rating” value (sugar beet; [1])?
Its value is 0.

What about the “Sugarbeets plant response rating” value (sugar beet; [2]) of the same molecule?
Its value is 0.

And the “Plant response rating, Sugarbeets” value (sugar beet; [3])?
The value was 4.

And the “Sugarbeets plant response rating” value (sugar beet; [4])?
Its value is 3.

And the “Sugarbeets plant response rating” value (sugar beet; [5])?
Its value is 5.

What about the “Sugarbeets plant response rating (0 to 10 scale)” value (sugar beet; Preemergence, Rate 250 g/ha) of the same molecule?
The value was 7.

What about the “Sugarbeets plant response rating” value (sugar beet; [6]) of the same molecule?
The value was 7.

And the “Wild oats plant response rating” value (wild oat; [1])?
The value was 0.

What about the “Wild oats plant response rating” value (wild oat; [2]) of the same molecule?
The value was 0.

And the “Plant response rating, Wild oats” value (wild oat; [3])?
The value was 0.

What about the “Wild oats plant response rating” value (wild oat; [4]) of the same molecule?
Its value is 0.

What about the “Wild oats plant response rating” value (wild oat; [5]) of the same molecule?
Its value is 0.

What about the “Wild oats plant response rating (0 to 10 scale)” value (wild oat; Preemergence, Rate 250 g/ha) of the same molecule?
The value was 9.

What about the “Wild oats plant response rating” value (wild oat; [6]) of the same molecule?
Its value is 9.

What about the “Corn plant response rating” value (corn; [1]) of the same molecule?
Its value is 0.

And the “Corn plant response rating” value (corn; [2])?
Its value is 0.

And the “Plant response rating, Corn” value (corn; [3])?
Its value is 0.

What about the “Corn plant response rating” value (corn; [4]) of the same molecule?
The value was 0.

What about the “Corn plant response rating” value (corn; [5]) of the same molecule?
The value was 0.

And the “Corn plant response rating (0 to 10 scale)” value (corn; Preemergence, Rate 250 g/ha)?
Its value is 0.

And the “Corn plant response rating” value (corn; [6])?
The value was 6.

And the “Plant response rating, Corn” value (corn; [7])?
The value was 0.

What about the “Crabgrass plant response rating” value (crabgrass; [1]) of the same molecule?
The value was 3.

And the “Crabgrass plant response rating” value (crabgrass; [2])?
Its value is 8.

What about the “Plant response rating, Crabgrass” value (crabgrass; [3]) of the same molecule?
The value was 9.

What about the “Crabgrass plant response rating” value (crabgrass; [4]) of the same molecule?
The value was 9.

And the “Crabgrass plant response rating” value (crabgrass; [5])?
Its value is 10.

What about the “Crabgrass plant response rating (0 to 10 scale)” value (crabgrass; Preemergence, Rate 250 g/ha) of the same molecule?
The value was 10.

And the “Crabgrass plant response rating” value (crabgrass; [6])?
Its value is 10.

What about the “Plant response rating, Crabgrass” value (crabgrass; [7]) of the same molecule?
The value was 9.

What about the “Nutsedge plant response rating” value (purple nutsedge; [1]) of the same molecule?
Its value is 0.

And the “Nutsedge plant response rating” value (purple nutsedge; [2])?
The value was 0.

What about the “Plant response rating, Nutsedge” value (purple nutsedge; [3]) of the same molecule?
Its value is 0.

And the “Nutsedge plant response rating” value (purple nutsedge; [4])?
The value was 0.

What about the “Nutsedge plant response rating” value (purple nutsedge; [5]) of the same molecule?
Its value is 0.

What about the “Nutsedge plant response rating” value (purple nutsedge; [6]) of the same molecule?
Its value is 0.

What about the “Plant response rating, Nutsedge” value (purple nutsedge; [7]) of the same molecule?
Its value is 0.

And the “Redroot pigweed plant response rating” value (pigweed; [1])?
Its value is 9.

And the “Redroot pigweed plant response rating” value (pigweed; [2])?
Its value is 9.

What about the “Plant response rating, Redroot pigweed” value (pigweed; [3]) of the same molecule?
The value was 9.

And the “Redroot pigweed plant response rating” value (pigweed; [4])?
Its value is 8.

And the “Redroot pigweed plant response rating” value (pigweed; [5])?
The value was 8.

What about the “Redroot pigweed plant response rating (0 to 10 scale)” value (pigweed; Preemergence, Rate 250 g/ha) of the same molecule?
The value was 8.

What about the “Redroot pigweed plant response rating” value (pigweed; [6]) of the same molecule?
The value was 8.

And the “Velvetleaf plant response rating” value (velvetleaf; [1])?
Its value is 0.

What about the “Velvetleaf plant response rating” value (velvetleaf; [2]) of the same molecule?
Its value is 4.

What about the “Plant response rating, Velvetleaf” value (velvetleaf; [3]) of the same molecule?
The value was 8.

And the “Velvetleaf plant response rating” value (velvetleaf; [4])?
Its value is 0.

What about the “Velvetleaf plant response rating” value (velvetleaf; [5]) of the same molecule?
The value was 0.

What about the “Velvetleaf plant response rating (0 to 10 scale)” value (velvetleaf; Preemergence, Rate 250 g/ha) of the same molecule?
The value was 5.

What about the “Velvetleaf plant response rating” value (velvetleaf; [6]) of the same molecule?
The value was 5.

And the “Plant response rating, Velvetleaf” value (velvetleaf; [7])?
Its value is 4.

What about the “Cocklebur plant response rating” value (cocklebur; [1]) of the same molecule?
Its value is 2.

And the “Cocklebur plant response rating” value (cocklebur; [2])?
Its value is 2.

What about the “Plant response rating, Cocklebur” value (cocklebur; [3]) of the same molecule?
Its value is 4.

What about the “Cocklebur plant response rating” value (cocklebur; [4]) of the same molecule?
Its value is 0.

What about the “Cocklebur plant response rating” value (cocklebur; [5]) of the same molecule?
Its value is 0.

What about the “Cocklebur plant response rating (0 to 10 scale)” value (cocklebur; Preemergence, Rate 250 g/ha) of the same molecule?
The value was 0.

What about the “Cocklebur plant response rating” value (cocklebur; [6]) of the same molecule?
Its value is 0.

And the “Plant response rating, Cocklebur” value (cocklebur; [7])?
Its value is 2.

What about the “B. signalgrass plant response rating” value (surinam grass; [1]) of the same molecule?
Its value is 0.

And the “B. signalgrass plant response rating” value (surinam grass; [2])?
The value was 0.

What about the “Plant response rating, B. signalgrass” value (surinam grass; [3]) of the same molecule?
The value was 4.

What about the “B. signalgrass plant response rating” value (surinam grass; [4]) of the same molecule?
The value was 2.

And the “B. signalgrass plant response rating” value (surinam grass; [5])?
Its value is 3.

And the “B. signalgrass plant response rating (0 to 10 scale, 0 is no effect, 10 is complete control)” value (surinam grass; Preemergence, Rate 250 g/ha)?
Its value is 9.

And the “B. signalgrass plant response rating” value (surinam grass; [6])?
Its value is 9.
